In patent US20030212078A1, “Topical administration of pharmacological compositions for non-systemic treatment of pruritus” (priority 2003, published 2003):

Tests used:
[1] = test system: patients with pruritus associated with atopic dermatitis; conditions: human, in vivo
Experimental: In another small uncontrolled and unblinded trial, one group of patients with pruritus associated with atopic dermatitis was treated with a spray (aqueous buffered solution of 40 mg/ml hydroxyzine hydrochloride), which was topically applied to an area of the patients' skin affected by atopic dermatitis. The patients were instructed to spray about 0.1 ml (three pump actions of the manually operated spray bottle) of the composition onto an area of about 10 cm^2 affected by symptomatic itching for up to 5 applications per day for a period of two weeks. A second group of group of patients with pruritus associated with atopic dermatitis was treated with a cream (W/O emulsion containing 2% (wt) hydroxyzine hydrochloride), which was topically applied to an area of the patients' skin affected by atopic dermatitis. The patients were instructed to massage a small portion (about 0.2 gram) into an area of about 10 cm^2 affected by symptomatic itching for up to 5 applications per day for a period of two weeks.

[2] = test system: patients with pruritus (neurodermatitis; insect bite); assay: Small, uncontrolled and unblinded trial of hydroxyzine*HCl skin cream in two patients with pruritus; type: in vivo, human; conditions: skin cream comprising 5% (by weight) hydroxyzine*HCl, both patients
Experimental: In a small, uncontrolled and unblinded trial, two patients with pruritus were treated with a skin cream comprising 5% (by weight) hydroxyzine*HCl. The first patient was diagnosed with neurodermatitis (a non-allergic condition), while the second patient was diagnosed with an insect bite (an allergic condition).

Compound | patients who experienced weight gain of at least 4% ([1]; 2 months) | time to positive result (significant reduction in pruritus) [2] | positive result (reduction in pruritus) ([2]; two patients (neurodermatitis, insect bite)) | patients who experienced drowsiness ([1]; 2 weeks) | patients who experienced transient tachycardia ([1]; 2 weeks)
CN1CCC(=C2c3ccccc3C=Cc3ccccc32)CC1 [cyproheptadine] | 5/15 |  |  |  | 
Cl.Cl.OCCOCCN1CCN(C(c2ccccc2)c2ccc(Cl)cc2)CC1 (centres unmarked) [hydroxyzine, 1-(p-chlorobenzhydryl) 4-[2-(2-hydroxyethoxy)-ethyl] piperazine dihydrochloride] |  | 60 s | significant reduction in pruritus | 13/15 | 4/15
